Entries after “also recorded” stand apart in the source; their conditions may differ. Counter-ions that a name gives are not always drawn. Like-named read-outs stand apart in the source and are kept apart here.
What was measured:
[1] = Stability of drugs and suspensions after gamma irradiation (chromatographic analysis)
Procedure: Aseptic formulation of thixotropic pharmaceutical compositions was conducted in accordance with the teachings of the present invention as follows. […] Following the sizing operation, each individual drug was divided into lots, which were then placed in an atmosphere of either argon or air. Each lot was then sterilized using 1.0 or 2.5 Mrad of gamma radiation applied to the lots of each drug under argon or air. Concomitantly, colloidal silicon dioxide was sterilized using dry heat while perfluorodecalin was sterile filtered. The three components were then combined aseptically and blended using a high shear dispenser. The thixotropic pharmaceutical compositions were then analyzed by chromatographic techniques to determine the effect of gamma radiation on the stability of the ten drugs sterilized either in air or in the argon environment.

[2] = cited from earlier work; for Density / Kin. viscosity / Specific heat / Surface tension: 25° C.; for Boiling point: ambient pressure
rabbit eyes [3] = test system: rabbit eyes
Procedure: As a control, an aqueous solution containing the same amount of drug was prepared. The final concentration of the brimonidine in both formulations was 0.1% w/v. The nonaqueous thixotropic compositions of the present invention were administered in a low dose volume of 8 μl, while the prior art aqueous control was administered in a volume of 50 μl. The drugs were administered to one eye of the rabbit with both eyes subsequently monitored for changes in intraocular pressure.

glaucomatous monkeys [4] = assay: Intraocular pressure after levo-bunolol in conscious, glaucomatous monkeys; type: in vivo, monkey; conditions: 0.25% w/v, 8 μl thixotropic versus approximately 35 μl aqueous
Procedure: (§1) To illustrate the high localized drug bioavailability and correspondingly low systemic side effects of the present invention, a pharmacology study was conducted on conscious, glaucomatous monkeys. Formulations of 0.25% w/v levo-bunolol, used to reduce intraocular pressure in glaucoma patients, were administered as an aqueous solution and as a thixotropic pharmaceutical composition made in accordance with the teachings of the present invention. The monkeys were monitored for reductions in intraocular pressure, indicating the desired localized drug action, and for changes in heart rate, indicating undesirable drug migration away from the target site and into the systemic circulation. The thixotropic compositions were administered in low dose volume 8 μl drops while the aqueous formulations were administered in prior art drop volumes of approximately 35 μl. FIG. 13A is the mean reduction in heart rate for the monkeys treated with the aqueous solution of the drug while FIG. 13B is the mean reduction in heart rate for the monkeys treated with the nonaqueous formulation.

glaucomatous monkeys [5] = assay: Heart rate after topical levo-bunolol in conscious, glaucomatous monkeys; type: in vivo, monkey
Procedure: as §1

[6] = Flow curve analysis fitted to the Cross model (viscosity, yield stress); type: physicochemical
Procedure: In order to determine the stress threshold at which the CSD network collapsed, stress sweeps were run on the five dispersions formulated in Example 1. The stress sweeps were conducted using a Carri-med and CNMR CS 100 rheometer with an optical encoder upgrade. The measuring geometry for all the CSD/perfluorodecalin dispersions was a 4 cm SS Flat Plate with solvent trap. The gap, selected after conducting probe studies using the 2.5% w/v CSD/perfluorodecalin dispersion, was set at 250 μm for the stress sweeps. The measuring geometry for perfluorodecalin was a recessed concentric cylinder and cup set at a 4 mm gap. These stress studies were run at 15° C. to minimize the evaporation of perfluorodecalin. For longer experiments (greater than 10 minutes), a cover was placed over the Flat Plate to prevent perfluorodecalin vaporization. FIG. 1 plots delta versus shear stress for each of the dispersions. Delta is the phase of the actual curve relative to the applied sinusoidal stress. […] This stress threshold is CSD concentration dependent and indicates the presence of an elastic three-dimensional network at low or resting stresses (i.e. low delta values). […]
To further characterize the rheology of the dispersions formulated in Example 1, complete flow curves, fit to the Cross model, were generated over a broad range of shear rates. […] Yield stresses were calculated from flow curve data.

[7] = test system: eyes of New Zealand albino rabbits; assay: Ocular toxicity of CSD in perfluorodecalin, gross and slit lamp examination; type: in vivo, rabbit
Procedure: More specifically, CSD dispersions of 2% w/v, 1% w/v and 0.5% w/v were prepared as in Example 1 and topically administered to the rabbits six times, at one hour intervals. Dose volumes of 8 μl were used for each dispersion along with a perfluorodecalin control. Following the six topical installations, each of the eyes was subjected to gross and slit lamp examination.

CHO cells = assay: Chinese hamster ovary (CHO) clonal cytotoxicity assay; type: cell-based; conditions: three-hour exposure
Procedure: To confirm the lack of toxicity associated with the thixotropic compositions of the present invention, a Chinese hamster ovary (CHO) clonal assay was performed to measure the cytotoxic effects of CSD and perfluorodecalin on cell viability. As is well-known in the art, the CHO clonal assay is extremely sensitive and is often used to test pharmaceutical composition toxicity. Different cell populations were exposed to 0.5% w/v CSD in perfluorodecalin, and from 0.01% to 0.1% w/v AGN 191053 dispersed in a suspension of 0.5% w/v CSD in perfluorodecalin. Straight perfluorodecalin was used as a negative control with a three-hour exposure period for each formulation tested.

rabbit eyes [8] = assay: Pupil diameter change after pilocarpine; type: in vivo
Procedure: Three different concentrations of pilocarpine were formulated as prior art aqueous solutions and as exemplary nonaqueous thixotropic pharmaceutical compositions according to the teachings of the present invention. Specifically, aqueous solutions and nonaqueous suspensions of 0, 0.1%, 0.5% and 2% pilocarpine were formulated under sterile conditions. The nonaqueous drug suspensions were made using 0.5% CSD uniformly dispersed in perfluorodecalin. Both sets of formulations were administered to rabbit eyes in drop volumes of 8 μl using positive displacement pipettes. Changes in pupil diameter were monitored with three rabbits being used for each concentration of each formulation. In particular, FIG. 12A illustrates the effects of the three different concentrations of […] administered using the nonaqueous vehicle while FIG. 12B illustrates equivalent data for the prior art solubilized aqueous pilocarpine.

[9] = 1.0 or 2.5 Mrad, under argon or air

Q: Which “activity lost after gamma radiation” value [1] does the source give for Brc1c(NC2=NCCN2)ccc2nccnc12 [AGN 190342] here?
A: The value was “No more than 5%”.

Q: Which results are given for FC1(F)C(F)(F)C(F)(F)C2(F)C(F)(C1(F)F)C(F)(F)C(F)(F)C1(F)C(F)(F)C(F)(F)C(F)(F)C(F)(F)C12F (centres unmarked) [PPP, perfluoroperhydrophenanthrene]?
A: Density [2]: 2.016 gms/mL; Kin. viscosity [2]: 8.0 cSt; Specific heat [2]: 0.27 g-cal/gm; Surface tension [2]: 21.6 dynes/cm; Boiling point [2]: 215 °C

Q: Which Density [2] does the source give for O [Water] here?
A: Its Density is 1.000 gms/mL.

Q: What about the Kin. viscosity [2] of the same compound?
A: Its Kin. viscosity is 1.00 cSt.

Q: And the Specific heat [2]?
A: Its Specific heat is 1.00 g-cal/gm.

Q: What about the Surface tension [2] of the same compound?
A: The Surface tension was 72.0 dynes/cm.

Q: Which results are given for Brc1c(NC2=NCCN2)ccc2nccnc12 [brimonidine]?
A: peak mean intraocular pressure reduction, treated eye (rabbit eyes [3]; 0.1% w/v, 8 μl thixotropic versus 50 μl aqueous): comparable to the much larger aqueous based prior art dosage; intraocular pressure response, untreated eye (rabbit eyes [3]; aqueous solution 0.1% w/v, 50 μl): undesirable pressure reduction in untreated eyes; intraocular pressure response, untreated eye (rabbit eyes [3]; thixotropic composition 0.1% w/v, 8 μl, versus aqueous control): significantly less intraocular pressure response in the untreated eye; also recorded: significant lower decrease in intraocular pressure in the untreated eyes

Q: Which “activity lost after gamma radiation” value [1] does the source give for CNCC(O)c1ccc(OC(=O)C(C)(C)C)c(OC(=O)C(C)(C)C)c1 (centres unmarked) [dipivalylepinephrine HCl] here?
A: Its value is “No more than 5%”.

Q: Which “activity lost after gamma radiation” value [1] does the source give for CC(C)(C)NC[C@H](O)COc1cccc2c1CCCC2=O [levo-bunolol HCl] here?
A: Its value is “No more than 5%”.

Q: Which results are given for CC(C)(C)NC[C@H](O)COc1cccc2c1CCCC2=O [levo-bunolol]?
A: reduction in intraocular pressure, thixotropic versus aqueous (glaucomatous monkeys [4]): almost identical; decrease in heart rate, thixotropic relative to aqueous solution (glaucomatous monkeys [5]; 0.25% w/v, 8 μl thixotropic versus approximately 35 μl aqueous): 65%; heart rate response (glaucomatous monkeys [5]; prior art aqueous delivery vehicle): undesirable decrease in heart rate

Q: With CC1COc2c(N3CCN(C)CC3)c(F)cc3c(=O)c(C(=O)O)cn1c23 (centres unmarked) [ofloxacin] as the compound, how does the “activity lost after gamma radiation” value [1] read?
A: The value was “No more than 5%”.

Q: Which “viscosity of pure perfluorodecalin without CSD” value [6] does the source give for FC1(F)C(F)(F)C(F)(F)C2(F)C(F)(F)C(F)(F)C(F)(F)C(F)(F)C2(F)C1(F)F (centres unmarked) [perfluorodecalin, Perfluoro(decahydronaphthalene)] here?
A: The value was 9.2 centipoise.

Q: And the Newtonian viscosity ([6]; 0% CSD)?
A: The Newtonian viscosity was 0.092 poise.

Q: And the “toxicity (cornea)” value ([7]; 6 topical doses of 8 μl at one hour intervals)?
A: Its value is “no discomfort, irritation, or toxicity”.

Q: What about the eye discomfort ([7]; rabbit, in vivo) of the same compound?
A: The eye discomfort was “no discomfort, irritation, or toxicity”.

Q: What about the “irritation (conjunctiva)” value ([7]; rabbit, in vivo) of the same compound?
A: Its value is “no discomfort, irritation, or toxicity”.

Q: What about the “chemical toxicity to CHO cells” value (CHO cells) of the same compound?
A: The value was “Neither the perfluorodecalin nor the CSD/perfluorodecalin formulations exhibited any chemical toxicity”.

Q: And the Density [2]?
A: Its Density is 1.929 gms/mL.

Q: What about the Kin. viscosity [2] of the same compound?
A: The Kin. viscosity was 2.9 cSt.

Q: And the Specific heat [2]?
A: Its Specific heat is 0.22 g-cal/gm.

Q: And the Surface tension [2]?
A: Its Surface tension is 19.3 dynes/cm.

Q: What about the Boiling point [2] of the same compound?
A: Its Boiling point is 142 °C.

Q: And the specific gravity ([2]; used to convert drop weight to volume)?
A: Its specific gravity is 1.93 g/mL.

Q: With CC[C@@H]1C(=O)OC[C@@H]1Cc1cncn1C [pilocarpine] as the compound, how does the “recovery period of pupil diameter” value (rabbit eyes [8]; nonaqueous formulation versus aqueous) read?
A: Its value is “prolonged recovery period”.

Q: What about the “reduction in pupil size” value (rabbit eyes [8]; nonaqueous thixotropic versus aqueous, equivalent drug concentrations, 8 μl) of the same compound?
A: Its value is “greater pharmaceutical effect, i.e. a reduction in pupil size”.

Q: For CC(=O)OCC(=O)[C@@]1(O)CC[C@H]2[C@@H]3CCC4=CC(=O)C=C[C@]4(C)[C@H]3[C@@H](O)C[C@@]21C [prednisolone acetate], which “activity lost after gamma radiation” value [1, 9] is on record?
A: Its value is “No more than 5%”.

Q: Which “activity lost after gamma radiation” value [1] does the source give for Cc1nnc(SCC2=C(C(=O)O)N3C(=O)[C@@H](NC(=O)Cn4cnnn4)[C@H]3SC2)s1 [sodium cephazolin] here?
A: Its value is “No more than 5%”.

Q: Which “activity lost after gamma radiation” value [1] does the source give for O=C(O)c1cc(=O)c2c(OCC(O)COc3cccc4oc(C(=O)O)cc(=O)c34)cccc2o1 [sodium cromoglycate] here?
A: Its value is “No more than 5%”.

Q: For CC(C(=O)O)c1ccc(-c2ccccc2)c(F)c1 (centres unmarked) [sodium flurbiprofen], which “activity lost after gamma radiation” value [1] is on record?
A: Its value is “No more than 5%”.

Q: Which “activity lost after gamma radiation” value [1, 9] does the source give for CC(C)(C)NC[C@H](O)COc1nsnc1N1CCOCC1 [timolol] here?
A: The value was “No more than 5%”.
